# Experimental data as given in patent publication US20040167330A1, “Novel chelating agents and conjugates thereof, their synthesis and use as diagnois and therapeutic agents” (priority 2004, published 2004).
# “Also recorded” adds a separate entry of the source.
# Tests used:
# human plasma proteins = test: In vitro binding to human plasma proteins (equilibration dialysis or ultrafiltration); type: in vitro ADME; settings: 37° C.
# Procedure: 3. Determination of the in vitro binding capacity of ^88Y-DO3A-P^BnNH2 complex to human plasma proteins
# 3. Binding of the 88Y-DO3A-P^BnNH2 complex to human plasma proteins was evaluated at 37° C. using equilibration dialysis or ultrafiltration. 10.2±2.3% or 3.7±3.2% were bound to plasma proteins, respectively. Pharmacokinetically, reversible binding is of no importance.
# [1] = Elimination (cumulative excretion of radioactivity) of ^88Y-DO3A-P^BnNH2 complex; type: in vivo; settings: Wistar SPF rats
# Procedure: 2. Determination of elimination (mode and rate) of ^88Y-DO3A-P^BnNH2 complex from the organism
# 2. Mode and rate of elimination of ^88Y-DO3A-P^BnNH2 complex from the organism as determined by cumulative excretion of radioactivity in intervals of 0-2 h and 0-24 h respectively after intravenous injection of ^88Y-DO3A-P^BnNH2 complex into the vena saphena of Wistar SPF rats are summarized in Table 4.
# [2] = Stability of complex in human plasma; type: in vitro ADME; settings: for High molecular weight form / Low molecular weight form: human plasma, 37° C.
# Procedure: 4. Determination of the stability of 88Y-DO3A-P^BnNH2 complex in human plasma
# 4. Stability of the ^88Y-DO3A-P^BnNH2 complex was determined in human plasma at 37° C. over 14 days using standardised in vitro conditions. […] Dissociation of the radionuclide ^88Y-yttrium from the ^88Y-DO3A-P^BnNH2 complex and binding to plasma proteins (predominantly to complex forming transferrin, a protein which prefers to form complexes with trivalent elements such as Fe^3+, Co^3+ but also Y^3+) was shown only for <2% of the total activity administered to human plasma.
# [3] = Formation of ^90Y-yttrium complex, radiochemical yield by TLC/HPLC; type: physicochemical
# Procedure: Purified DO3A-P^BnNH2 was dissolved in demineralised water at a concentration of 9×10^−5 mol/l. 0.1 ml of this solution were transferred into a small reaction vial (PE). 0.1 ml ^90Y-yttrium chloride (YCl3) in 0.1 M HCl and 0.1 ml ammonium acetate buffer, pH 5.7, were added. The reaction solutions were mixed well. pH values were measured continuously while preparing the solution. 24 identical solutions were prepared accordingly and stored at 25° C. and 37° C. respectively.
# Samples were taken after 15 min, 30 min, 45 min, 60 min, 90 min and 120 min and analyzed by thin layer chromatography using silica gel (POLYGRAM SIL G/UV254) or, preferably, paper (Whatman No. 1) as solid phase. TLC was run using either solvent I: 0.1 N ammonium acetate solution or solvent II: 3% sodium chloride solution as developing solution. In parallel, samples (20 μl) were analyzed by gel filtration using HPLC. The HPLC-system comprised a gamma detector (Berthold LB 506) and a UV/VIS spectrometer (Waters 486) installed in two flow through cells, respectively.
# Temperature- and time-dependent studies have shown a very short reaction time for the complex formation of a ^90Y-Yttrium-DO3A-complex.
# Furthermore, the effect of pH and ligand concentration on radiochemical yield was evaluated. Table 5 summarizes the results relating to the variation of pH between pH 2.0 and pH 8.9 while maintaining a constant ratio of DO3A-P^BnNH2 and Y of 3:1 and a reaction time of 60 min at 25° C. Accordingly, best labeling results are achieved at pH values of 4.9-8.0. Table 6 summarizes the results relating to the variation of the ligand concentration DO3A-P^BnNH2: Y between 1:1 up to 7:1 while maintaining a constant pH range (pH 5.2) and reaction time of 60 min at 25° C.
# [4] = as above; type: physicochemical; settings: reaction time 0 min, [Y] = 1,2 · 10^−3 mol/l, ratio of ligand: Y = 1:1, pH = 5.5
smiles,measurement,setting,value
Nc1ccc(CP(=O)([O-])CN2CCN(CC(=O)[O-])CCN(CC(=O)[O-])CCN(CC(=O)[O-])CC2)cc1.[88Y+3] [^88Y-DO3A-P^BnNH2 complex],bound to plasma proteins,human plasma proteins; equilibration dialysis,10.2±2.3%
same,bound to plasma proteins,human plasma proteins; ultrafiltration,3.7±3.2%
same,Cumulative excretion of radioactivity,"[1]; Faeces, interval 0-24 h after intravenous injection",3.6 ± 2.8%
same,Cumulative excretion of radioactivity,"[1]; Urine, interval 0-2 h after intravenous injection",79.4 ± 5.2%
same,Cumulative excretion of radioactivity,"[1]; Urine, interval 0-24 h after intravenous injection",84.3 ± 5.0%
same,Dissociation of the radionuclide ^88Y-yttrium from the complex and binding to plasma proteins,[2]; human plasma at 37° C. over 14 days,< 2 % of the total activity administered to human plasma
same,Stability of the complex in human plasma,"[2]; human plasma at 37° C. over 14 days, standardised in vitro conditions",highly stable; also recorded: high stability
same,High molecular weight form,"[2]; Day 0, Experiment No. 1",0.28%
same,Low molecular weight form,"[2]; Day 0, Experiment No. 1",99.72%
same,High molecular weight form,"[2]; Day 0, Experiment No. 2",0.10%
same,Low molecular weight form,"[2]; Day 0, Experiment No. 2",99.90%
same,High molecular weight form,"[2]; Day 3, Experiment No. 1",0.75%
same,Low molecular weight form,"[2]; Day 3, Experiment No. 1",99.25%
same,High molecular weight form,"[2]; Day 3, Experiment No. 2",0.56%
same,Low molecular weight form,"[2]; Day 3, Experiment No. 2",99.44%
same,High molecular weight form,"[2]; Day 5, Experiment No. 1",0.72%
same,Low molecular weight form,"[2]; Day 5, Experiment No. 1",99.28%
same,High molecular weight form,"[2]; Day 5, Experiment No. 2",0.91%
same,Low molecular weight form,"[2]; Day 5, Experiment No. 2",99.09%
same,High molecular weight form,"[2]; Day 7, Experiment No. 1",0.79%
same,Low molecular weight form,"[2]; Day 7, Experiment No. 1",99.21%
same,High molecular weight form,"[2]; Day 7, Experiment No. 2",0.73%
same,Low molecular weight form,"[2]; Day 7, Experiment No. 2",99.27%
same,High molecular weight form,"[2]; Day 10, Experiment No. 1",0.91%
same,Low molecular weight form,"[2]; Day 10, Experiment No. 1",99.09%
same,High molecular weight form,"[2]; Day 10, Experiment No. 2",1.08%
same,Low molecular weight form,"[2]; Day 10, Experiment No. 2",98.92%
same,High molecular weight form,"[2]; Day 12, Experiment No. 1",1.17%
same,Low molecular weight form,"[2]; Day 12, Experiment No. 1",98.83%
same,High molecular weight form,"[2]; Day 12, Experiment No. 2",1.35%
same,Low molecular weight form,"[2]; Day 12, Experiment No. 2",98.65%
same,High molecular weight form,"[2]; Day 14, Experiment No. 1",1.68%
same,Low molecular weight form,"[2]; Day 14, Experiment No. 1",98.32%
same,High molecular weight form,"[2]; Day 14, Experiment No. 2",1.80%
same,Low molecular weight form,"[2]; Day 14, Experiment No. 2",98.20%
Nc1ccc(CP(=O)([O-])CN2CCN(CC(=O)[O-])CCN(CC(=O)[O-])CCN(CC(=O)[O-])CC2)cc1.[90Y+3] [^90Y-DO3A-P^BnNH2-complex],radiochemical yield,"[3]; pH 2.0, [Y] = 1.5 · 10^−5 mol/l, ratio of ligand: Y = 3:1, reaction time 60 min, 25° C.",12%
same,radiochemical yield,"[3]; pH 3.0, [Y] = 1.5 · 10^−5 mol/l, ratio of ligand: Y = 3:1, reaction time 60 min, 25° C.",54%
same,radiochemical yield,"[3]; pH 3.9, [Y] = 1.5 · 10^−5 mol/l, ratio of ligand: Y = 3:1, reaction time 60 min, 25° C.",77%
same,radiochemical yield,"[3]; pH 4.4, [Y] = 1.5 · 10^−5 mol/l, ratio of ligand: Y = 3:1, reaction time 60 min, 25° C.",93%
same,radiochemical yield,"[3]; pH 4.9, [Y] = 1.5 · 10^−5 mol/l, ratio of ligand: Y = 3:1, reaction time 60 min, 25° C.",97%
same,radiochemical yield,"[3]; pH 5.6, [Y] = 1.5 · 10^−5 mol/l, ratio of ligand: Y = 3:1, reaction time 60 min, 25° C.",95%
same,radiochemical yield,"[3]; pH 6.0, [Y] = 1.5 · 10^−5 mol/l, ratio of ligand: Y = 3:1, reaction time 60 min, 25° C.",93%
same,radiochemical yield,"[3]; pH 6.2, [Y] = 1.5 · 10^−5 mol/l, ratio of ligand: Y = 3:1, reaction time 60 min, 25° C.",97%
same,radiochemical yield,"[3]; pH 6.6, [Y] = 1.5 · 10^−5 mol/l, ratio of ligand: Y = 3:1, reaction time 60 min, 25° C.",98%
same,radiochemical yield,"[3]; pH 6.8, [Y] = 1.5 · 10^−5 mol/l, ratio of ligand: Y = 3:1, reaction time 60 min, 25° C.",98%
same,radiochemical yield,"[3]; pH 8.0, [Y] = 1.5 · 10^−5 mol/l, ratio of ligand: Y = 3:1, reaction time 60 min, 25° C.",98%
same,radiochemical yield,"[3]; pH 8.9, [Y] = 1.5 · 10^−5 mol/l, ratio of ligand: Y = 3:1, reaction time 60 min, 25° C.",91%
same,radiochemical yield,"[3]; ratio of ligand:Y 1:1, [Y] = 1.2 · 10^−3 mol/l, pH = 5.2, reaction time 60 min, 25° C.",94%
same,radiochemical yield,"[3]; ratio of ligand:Y 2:1, [Y] = 1.2 · 10^−3 mol/l, pH = 5.2, reaction time 60 min, 25° C.",97%
same,radiochemical yield,"[3]; ratio of ligand:Y 3:1, [Y] = 1.2 · 10^−3 mol/l, pH = 5.2, reaction time 60 min, 25° C.",98%
same,radiochemical yield,"[3]; ratio of ligand:Y 4:1, [Y] = 1.2 · 10^−3 mol/l, pH = 5.2, reaction time 60 min, 25° C.",99%
same,radiochemical yield,"[3]; ratio of ligand:Y 5:1, [Y] = 1.2 · 10^−3 mol/l, pH = 5.2, reaction time 60 min, 25° C.",97%
same,radiochemical yield,"[3]; ratio of ligand:Y 6:1, [Y] = 1.2 · 10^−3 mol/l, pH = 5.2, reaction time 60 min, 25° C.",99%
same,radiochemical yield,"[3]; ratio of ligand:Y 7:1, [Y] = 1.2 · 10^−3 mol/l, pH = 5.2, reaction time 60 min, 25° C.",97%
same,radiochemical yield,"[3]; reaction time 15 min, 25° C., [Y] = 1,2 · 10^−3 mol/l, ratio of ligand: Y = 1:1, pH = 5.5",97%
same,radiochemical yield,"[3]; reaction time 15 min, 37° C., [Y] = 1,2 · 10^−3 mol/l, ratio of ligand: Y = 1:1, pH = 5.5",98%
same,radiochemical yield,"[3]; reaction time 30 min, 25° C., [Y] = 1,2 · 10^−3 mol/l, ratio of ligand: Y = 1:1, pH = 5.5",97%
same,radiochemical yield,"[3]; reaction time 30 min, 37° C., [Y] = 1,2 · 10^−3 mol/l, ratio of ligand: Y = 1:1, pH = 5.5",98%
same,radiochemical yield,"[3]; reaction time 45 min, 25° C., [Y] = 1,2 · 10^−3 mol/l, ratio of ligand: Y = 1:1, pH = 5.5",97%
same,radiochemical yield,"[3]; reaction time 45 min, 37° C., [Y] = 1,2 · 10^−3 mol/l, ratio of ligand: Y = 1:1, pH = 5.5",98%
same,radiochemical yield,"[3]; reaction time 60 min, 25° C., [Y] = 1,2 · 10^−3 mol/l, ratio of ligand: Y = 1:1, pH = 5.5",97%
same,radiochemical yield,"[3]; reaction time 60 min, 37° C., [Y] = 1,2 · 10^−3 mol/l, ratio of ligand: Y = 1:1, pH = 5.5",97%
same,radiochemical yield,"[3]; reaction time 90 min, 25° C., [Y] = 1,2 · 10^−3 mol/l, ratio of ligand: Y = 1:1, pH = 5.5",98%
same,radiochemical yield,"[3]; reaction time 90 min, 37° C., [Y] = 1,2 · 10^−3 mol/l, ratio of ligand: Y = 1:1, pH = 5.5",98%
same,radiochemical yield,"[3]; reaction time 120 min, 25° C., [Y] = 1,2 · 10^−3 mol/l, ratio of ligand: Y = 1:1, pH = 5.5",98%
same,radiochemical yield,"[3]; reaction time 120 min, 37° C., [Y] = 1,2 · 10^−3 mol/l, ratio of ligand: Y = 1:1, pH = 5.5",99%
same,radiochemical yield,[4]; 25° C.,88%
same,radiochemical yield,[4]; 37° C.,88%
